Marks after values point to notes of the source that are not given here.
What was measured:
[1] = ABTS radical scavenging activity (in vitro antioxidant capacity assay)
Description: The ABTS radical scavenging activity was determined according to Re et al. [19], with some modifications. A 250 µL ABTS solution was mixed with 10 µL of each pure polyphenols solutions (concentration 50 µg/mL), ethanol extracts, and digested extracts (concentrations: 0.3 mg/mL), and then was measured at the wavelength 724 nm using a UV/Vis spectrophotometer (BioTek, Model Epoch2TC, Winooski, VT, USA) after 15 min of incubation at room temperature. The inhibition percentage of ABTS discoloration was calculated using the fallowing equation:AA = [(Ac − Ap)/(Ac)] × 100%(1) where Ac is the absorbance of control, Ap is the absorbance of pure polyphenols solutions

thyroid peroxidase (TPO) = biological target: T1, thyroid peroxidase (TPO) (Sus scrofa, UniProt P09933); experiment: Thyroid peroxidase inhibitory assay (guaiacol assay, Lineweaver–Burk plot); conditions: for EFC50 (effective concentration inhibiting TPO in 50%) / Ki (TPO) / Vmax (TPO) / Mode of Inhibition (TPO): pure polyphenol solutions; for Mode of Inhibition (TPO): Lineweaver–Burk
T1 sequence (P09933 15-926): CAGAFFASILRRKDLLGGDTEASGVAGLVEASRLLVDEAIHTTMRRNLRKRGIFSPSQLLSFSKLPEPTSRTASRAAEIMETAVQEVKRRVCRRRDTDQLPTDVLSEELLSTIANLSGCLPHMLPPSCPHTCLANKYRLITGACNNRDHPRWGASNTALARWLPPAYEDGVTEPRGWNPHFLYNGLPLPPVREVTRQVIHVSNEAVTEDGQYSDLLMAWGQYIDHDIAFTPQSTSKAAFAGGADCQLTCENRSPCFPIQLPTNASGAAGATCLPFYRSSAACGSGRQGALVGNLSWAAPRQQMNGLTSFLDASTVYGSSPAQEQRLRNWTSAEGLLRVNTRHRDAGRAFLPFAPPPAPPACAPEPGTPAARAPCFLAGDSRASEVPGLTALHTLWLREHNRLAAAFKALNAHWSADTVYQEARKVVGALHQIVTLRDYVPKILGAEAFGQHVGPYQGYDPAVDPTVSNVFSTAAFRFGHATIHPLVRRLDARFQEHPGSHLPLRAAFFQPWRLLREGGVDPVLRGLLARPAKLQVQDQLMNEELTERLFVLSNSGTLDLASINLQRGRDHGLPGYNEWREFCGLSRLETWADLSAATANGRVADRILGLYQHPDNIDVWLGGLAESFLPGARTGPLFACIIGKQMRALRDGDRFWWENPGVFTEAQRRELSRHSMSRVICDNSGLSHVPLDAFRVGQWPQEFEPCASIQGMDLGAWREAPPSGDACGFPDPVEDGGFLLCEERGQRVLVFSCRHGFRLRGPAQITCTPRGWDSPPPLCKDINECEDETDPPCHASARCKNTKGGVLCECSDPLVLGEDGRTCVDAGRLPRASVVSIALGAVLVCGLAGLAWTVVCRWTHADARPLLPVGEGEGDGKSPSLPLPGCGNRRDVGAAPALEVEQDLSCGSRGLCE

[2] = pure polyphenols, values in text

## COc1cc(C=CC(=O)O)cc(OC)c1O (stereo in doubt) [Sinapinic acid, sinapinic acid]
[1]; [2]
  ABTS radical scavenging ability IC50: 84.33 µg/mL
Thyroid peroxidase (TPO)
  EFC50 (effective concentration inhibiting TPO in 50%): 25.42 ± 1.13 ^a µg/mL
  Ki (TPO): 45.92 ± 3.22 ^b µg/mL
  Vmax (TPO): 149.25 ± 6.26 ^a ΔAU/min
  Mode of Inhibition (TPO): Competitive

## O=c1cc(-c2ccc(O)cc2)oc2cc(O)cc(O)c12 [Apigenin, apigenin]
[1]; pure chemical standards
  ABTS radical scavenging ability IC50: 0.406 ± 0.003 ^c mg/mL
[1]; [2]
  ABTS radical scavenging ability IC50: 405.93 µg/mL
Thyroid peroxidase (TPO)
  IC50: 430 µM
  Ki: 1250 µM
  Vmax (TPO): 149.25 ± 5.12 ^a ΔAU/min
  Mode of Inhibition (TPO): Uncompetitive

## O.Oc1cc(O)c2c(c1)O[C@H](c1ccc(O)c(O)c1)[C@@H](O)C2 [Catechin, catechin]
[1]; pure chemical standards
  ABTS radical scavenging ability IC50: 0.078 ± 0.008 ^a mg/mL
[1]; [2]
  ABTS radical scavenging ability IC50: 78.37 µg/mL
Thyroid peroxidase (TPO)
  EFC50 (effective concentration inhibiting TPO in 50%): 29.76 ± 2.05 ^b µg/mL
  Ki (TPO): 33.42 ± 1.35 ^a µg/mL
  Vmax (TPO): 144.93 ± 4.33 ^a ΔAU/min
  Mode of Inhibition (TPO): Competitive

## O=c1c(O)c(-c2ccc(O)cc2)oc2cc(O)cc(O)c12 [Kaempferol, kaempferol]
[1]; pure chemical standards
  ABTS radical scavenging ability IC50: 0.337 ± 0.002 ^b mg/mL
Thyroid peroxidase (TPO)
  IC50: 215 µM
  Ki: 653 µM
  Vmax (TPO): 192.31 ± 8.34 ^b ΔAU/min
  Mode of Inhibition (TPO): Competitive

— PMC6920844, “Mechanism of Action and Interactions between Thyroid Peroxidase and Lipoxygenase Inhibitors Derived from Plant Sources” (Biomolecules, 2019)
